Experimental data taken from patent EP0181109B1, “N6-benzopyrano- and benzothiopyrano-adenosines” (WARNER-LAMBERT COMPANY, priority 1984, dated 1986).

Columns and labels:
adenosine A1 receptor = target: T1, adenosine A1 receptor (Rattus norvegicus, UniProt P25099); assay: Adenosine Receptor Binding - A1 Receptor Affinity (RBA 1), [3H]-CHA displacement; settings: rat whole brain membranes, 1.0 nM [3H]-CHA, one hour at 25°C
T1 construct: Whole brain minus cerebellum and brainstem from male Long Evans rats (150-200 g) was homogenized; from tissue; host or cells: rat whole brain minus cerebellum and brainstem (membrane homogenate)
T1 sequence (P25099 1-326): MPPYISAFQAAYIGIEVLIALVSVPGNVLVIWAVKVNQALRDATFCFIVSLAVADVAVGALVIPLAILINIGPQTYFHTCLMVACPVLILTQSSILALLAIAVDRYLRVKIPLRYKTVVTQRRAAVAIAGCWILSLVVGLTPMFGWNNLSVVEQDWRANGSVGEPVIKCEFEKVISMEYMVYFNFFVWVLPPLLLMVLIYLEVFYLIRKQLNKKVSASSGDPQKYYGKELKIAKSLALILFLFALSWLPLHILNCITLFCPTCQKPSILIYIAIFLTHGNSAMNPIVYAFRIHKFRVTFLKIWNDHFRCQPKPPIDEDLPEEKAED
Procedure: Whole brain minus cerebellum and brainstem from male Long Evans rats (150-200 g) was homogenized in 30 volumes of ice-cold 0.05 M Tris-HCI buffer pH 7.7 using a Brinkman Polytron PT-10, (setting number 6 for 20 seconds) and centrifuged for ten minutes at 20,000 x g (Sorvall RC-2), 4°C. The supernatant was discarded, and the pellet was resuspended and centrifuged as before. The pellet was resuspended in 20 ml Tris-HCI buffer containing two International Units/ml of adenosine deaminase (Sigma Type III from calf intestinal mucosa), incubated at 37°C for 30 minutes, then subsequently at 0°C for ten minutes. The homogenate was again centrifuged, and the final pellet was resuspended in ice-cold 0.05 M Tris-HCI buffer pH 7.7 to a concentration of 20 mg/ml original wet tissue weight and used immediately.
Tissue homogenate (10 mg/ml) was incubated in 0.05 M Tris-HCI buffer pH 7.7 containing 1.0 nM [^3H]-N^6-cyclohexyladenosine (^3H]-CHA) with or without test agents in triplicate for one hour at 25°C. Incubation volume was 2 ml. Unbound [^3H]-CHA was separated by rapid filtration under reduced pressure through Whatman glass fiber (GF/B) filters. The filters were rinsed three times with 5 ml of ice cold 0.05 M Tris-HCI buffer pH 7.7. The radio-labele ligand retained on the filter was measured by liquid scintillation spectrophotometry after shaking the filters for one hour or longer on a mechanical shaker in 10 ml of Beckman Ready-Solv HP scintillation cocktail.
Nonspecific binding was defined as the binding which occurred in the presence of 1 mM theophylline. The concentration of test agent which inhibited 50% of the specific binding (IC50) was determined by nonlinear computer curve fit. The Scatchard plot was calculated by linear regression of the line obtained by plotting the amount of radioligand bound (pmoles/gram of tissue) versus
• bound radioligand • free radioligand Since the amount of radioligand bound was a small fraction of the total amount added, free radioligand was defined as the concentration (nM) of radioligand added to the incubation mixture. The Hill coefficient was calculated by linear regression of the line obtained by plotting the log of the bound radioligand vs the log of the • bound radioligand • Bmax - bound radioligand • The maximal number of binding sites (Bmax) was calculated from the Scatchard plot.

[1] = tested on: mice falling off the inverted screen; assay: Mouse Activity and Screen Test Procedure (MAST): screen test (ST); assay type: in vivo, Swiss-Webster male mice; settings: one hour postinjection, percent of mice falling off the screen
Text: The compounds of the invention are new chemical substances which are useful as pharmaceutical agents for the treatment of psychoses. The antipsychotic activity of representative compounds of the invention was established by the Mouse Activity and Screen Test Procedure (MAST) described below.
Nine unfasted Swiss-Webster male mice weighing 20-30 g are equally divided into three groups for each drug dose to be tested. There is, data for each dose level was generated by three separate groups of three mice each.
A minimum of three dose levels (10, 30, and 100 mg/kg) are tested for each drug. Treatments are administered intraperitoneally one hour prior to testing. All dosages are calculated as parent compound and given in volumes of 10 ml/kg. Compounds are dissolved or suspended in 0.2% Methocel. Control animals are injected with Methocel.
Testing: A two part testing procedure is started one hour postinjection. First, the screen test (ST) is performed (see Pharmac. Biochem. Behav. 6,351-353,1977). Briefly this test consists of placing mice on individual wire screens which are then rotated 180 degrees at the start of a 60 second observation period. The number of mice falling off the inverted screen is recorded.
Data: The data obtained from the screen test are expressed as percent of mice falling off the screen. Data derived from locomotor activity of drug treated mice are compared to the activity of vehicle treated animals and are expressed as percent inhibition of spontaneous locomotion. All percentages reported for inhibition of locomotion (LI) are based upon data accumulated for one hour. Both phases of testing are graded: A=60-100%; C=31-59%; and N=0-30%. An overall dose rating is obtained by the following criteria:
LAD refers to the lowest dose at which an A rating is achieved. […] Utilizing this procedure, an overall dose rating of A was obtained for the noted compound at the indicated dose. The compounds are identified in the Examples.

Row | IC50 (adenosine A1 receptor) [nM] | Screen Test Failure ([1]; 1 mg/kg intraperitoneally) [%] | Screen Test Failure ([1]; 3 mg/kg intraperitoneally) [%] | Screen Test Failure ([1]; 10 mg/kg intraperitoneally) [%] | Screen Test Failure ([1]; 30 mg/kg intraperitoneally) [%] | Screen Test Failure ([1]; 100 mg/kg intraperitoneally) [%] | Screen Test Failure ([1]; 0.3 mg/kg intraperitoneally) [%] | Screen Test Failure ([1]; 9.0 mg/kg intraperitoneally) [%] | SMILES
1 | 14.2 | 0 | 0 | 22 | 22 |  |  |  | COc1ccc2c(c1)OCC(Nc1ncnc3c1ncn3[C@@H]1O[C@H](CO)[C@@H](O)[C@H]1O)C2 (stereo partly shown) [Example 3]
2 | 27 | 0 | 0 | 11 | 22 | 55 |  |  | Cc1ccc2c(c1C)OCC(Nc1ncnc3c1ncn3[C@@H]1O[C@H](CO)[C@@H](O)[C@H]1O)C2 (stereo partly shown) [Example 10, N^6-[7,8-Dimethyl-3-chromanylamino]adenosine]
3 | 17 | 0 | 0 | 22 | 55 | 44 |  |  | OC[C@H]1O[C@@H](n2cnc3c(NC4COc5c(Cl)cccc5C4)ncnc32)[C@H](O)[C@@H]1O (stereo partly shown) [Example 5]
4 | 4.9 | 0 | 0 | 77 | 99 | 99 |  |  | COc1ccc2c(c1)CC(Nc1ncnc3c1ncn3[C@@H]1O[C@H](CO)[C@@H](O)[C@H]1O)CO2 (stereo partly shown) [Example 6]
5 | 56.2 |  | 11 | 22 | 55 |  |  |  | OC[C@H]1O[C@@H](n2cnc3c(NC4CCSc5ccccc54)ncnc32)[C@H](O)[C@@H]1O (stereo partly shown) [Example 15]
6 | 7.8 | 0 | 22 |  | 100 |  | 0 | 55 | CC1Oc2ccccc2CC1Nc1ncnc2c1ncn2C1OC(CO)C(O)C1O (stereo not drawn) [Example 7, N^6-[cis-2-Methyl-3-chromanylamino]adenosine]
7 | 160 |  |  | 0 | 0 | 22 |  |  | CC(C)(C)c1ccc2c(c1)OCC(Nc1ncnc3c1ncn3[C@@H]1O[C@H](CO)[C@@H](O)[C@H]1O)C2 (stereo partly shown) [Example 13, N^6-[7-t-Butyl-3-chromanylamino)adenosine]
8 | 88 |  | 33 | 33 | 22 |  |  |  | OC[C@H]1O[C@@H](n2cnc3c(NC4CCOc5ccccc54)ncnc32)[C@H](O)[C@@H]1O (stereo partly shown) [Example 1]
9 | 8.1 | 0 | 0 | 22 | 44 | 77 |  |  | Cc1cc2c(cc1C)OCC(Nc1ncnc3c1ncn3[C@@H]1O[C@H](CO)[C@@H](O)[C@H]1O)C2 (stereo partly shown) [Example 9, N^6-[6,7-Dimethyl-3-chromanylamino]adenosine]
10 | 45 | 0 | 11 | 0 | 11 | 33 |  |  | C[C@H]1Oc2ccccc2C[C@@H]1Nc1ncnc2c1ncn2[C@@H]1O[C@H](CO)[C@@H](O)[C@H]1O (relative stereo) [Example 8, N^l-[trans-2-Methyl,-3-chromanylamino]adenosine]
11 | 32 | 0 | 0 | 11 | 22 | 67 |  |  | Cc1ccc2c(c1C)OC(C)C(Nc1ncnc3c1ncn3[C@@H]1O[C@H](CO)[C@@H](O)[C@H]1O)C2 (stereo partly shown) [Example 11]
12 | 622 |  | 0 | 22 | 55 |  |  |  | O=S1(=O)CCC(Nc2ncnc3c2ncn3[C@@H]2O[C@H](CO)[C@@H](O)[C@H]2O)c2ccccc21 (stereo partly shown) [Example 16, N^6-[4-Benzothiopyran-1,1-dioxideamino]adenosine]
13 | 4930 |  |  | 0 | 0 | 0 |  |  | COc1cc(OC)c2c(c1)OC(C)(C)CC2Nc1ncnc2c1ncn2[C@@H]1O[C@H](CO)[C@@H](O)[C@H]1O (stereo partly shown) [Example 14]
14 | 20 | 22 | 11 | 11 | 100 | 88 |  |  | OC[C@H]1O[C@@H](n2cnc3c(NC4COc5ccccc5C4)ncnc32)[C@H](O)[C@@H]1O (stereo partly shown) [Example 4, N^6-[3-Chromanylamino]adenosine]

Row | SMILES | IC50 (adenosine A1 receptor) [nM] | Screen Test Failure ([1]; 1 mg/kg intraperitoneally) [%] | Screen Test Failure ([1]; 3 mg/kg intraperitoneally) [%] | Screen Test Failure ([1]; 10 mg/kg intraperitoneally) [%] | Screen Test Failure ([1]; 30 mg/kg intraperitoneally) [%] | Screen Test Failure ([1]; 100 mg/kg intraperitoneally) [%] | Screen Test Failure ([1]; 0.3 mg/kg intraperitoneally) [%] | Screen Test Failure ([1]; 9.0 mg/kg intraperitoneally) [%]
15 | OC[C@H]1O[C@@H](n2cnc3c(NC4CSc5ccccc5C4)ncnc32)[C@H](O)[C@@H]1O (stereo partly shown) [Example 2] | 6.33 | 11 | 0 | 11 | 56 | 100 |  | 
